“And” between values parts separate entries of the source, which are not always exact repeats. Equal values may be shown once.
How the values were obtained:
[1] = molecular target: T1, P2Y12 receptor (Homo sapiens, UniProt Q9H244); assay: Human P2Y12 recombinant cell membrane binding assay with 33P 2MeS-ADP (Assay 3); set-up: expressed in transfected cells; host or cells: HEK cells; details: for IC50 / Ki: HEK cell membranes expressing P2Y12, multiple lines = multiple runs; for inhibition at 10 µM / [33P]-2MeS-ADP Binding to Recombinant Human P2Y12 Membranes (Assay 3) % Inhibition: highest concentration tested 10 μM; for inhibition at 10 µM: read-out: [33P]-2MeS-ADP Binding to Recombinant Human P2Y12 Membranes (Assay 3) % Inhibition
T1 sequence (Q9H244 whole entry): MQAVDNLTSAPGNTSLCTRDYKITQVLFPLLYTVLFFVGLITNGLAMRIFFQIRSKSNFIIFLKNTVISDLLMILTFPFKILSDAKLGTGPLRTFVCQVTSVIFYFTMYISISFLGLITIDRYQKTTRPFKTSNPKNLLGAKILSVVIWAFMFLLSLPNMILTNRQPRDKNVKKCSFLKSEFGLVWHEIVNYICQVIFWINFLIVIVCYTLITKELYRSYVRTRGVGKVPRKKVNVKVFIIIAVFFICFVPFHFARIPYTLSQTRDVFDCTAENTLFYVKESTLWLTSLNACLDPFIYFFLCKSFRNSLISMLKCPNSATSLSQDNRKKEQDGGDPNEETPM
Protocol: 3. Human P2Y12 Recombinant Cell Membrane Binding Assay with ^33P 2MeS-ADP.
The ability of a test compound to bind to the P2Y12 receptor was evaluated in a recombinant cell membrane binding assay. In this competitive binding assay, the test compound competed against a radiolabelled agonist for binding to the P2Y12 receptor, expressed on the cell membrane. Inhibition of binding of the labeled material was measured and correlated to the amount and potency of the test compound. Data from this assay are presented in Table F. This binding assay is a modification of the procedure in Takasaki, J. et. al, Mol. Pharmacol., 2001, Vol. 60, pg. 432.
HEK cells were transfected with the pDONR201P2Y12 vector and cultured in MEM with GlutaMAX I, Earle's salts, 25 mM HEPES (Gibco # 42360-032) containing 10% dialyzed FBS (Gibco # 26400-044), 100 μM nonessential amino acids (Gibco # 11140-050), 1 mM sodium pyruvate (Gibco # 11360-070), 0.05% geneticin (Gibco #10131-027), 3 μg/mL blasticidin (Fluka brand from Sigma # 15205), and 0.5 μg/mL puromycin (Sigma # P-8833).
Confluent cells were washed once with cold DPBS (Gibco # 14190-136). Fresh DPBS was added and the cells were scraped and centrifuged at 500×g for 5 minutes at 4° C. The cell pellets were resuspended in TEE buffer (25 mM Tris, 5 mM EDTA, 5 mM EGTA) containing 1 protease inhibitor cocktail tablet (Roche # 1 873 580) per 50 mL (called TEE+Complete) and can be flash frozen at this point.
In one embodiment, frozen cell pellets were used to prepare the membranes. In that embodiment, the frozen cell pellets were thawed on ice. In another embodiment, cell pellets may be used without flash freezing before moving on to the next step.
Cell pellets were resuspended in TEE buffer+Complete and homogenized in a glass dounce for 12 strokes. The cell suspension was centrifuged at 500×g for 5 minutes at 4° C. The supernatant was saved and centrifuged at 20,000×g for 20 minutes at 4° C. This supernatant was discarded and the cell pellet resuspended in TEE buffer+Complete and homogenized in a glass dounce for 12 strokes. This suspension was centrifuged at 20,000×g for 20 minutes at 4° C. and the supernatant discarded. The pellet was resuspended in assay buffer (50 mM Tris, 100 mM NaCl, 1 mM EDTA) containing one protease inhibitor cocktail tablet per 50 mL, and can be flash frozen as 1 mL aliquots at this point.
Dry compounds were diluted as 10 mM DMSO stocks and tested in a seven-point, three-fold dilution series run in triplicate beginning at 10 μM, final concentration. A 1 mM DMSO intermediate stock was made in a dilution plate and from this the seven dilutions were made to 5× the final concentration in assay buffer containing 0.02% BSA.
To a polypropylene assay plate (Costar # 3365) the following were added: a) 30 μL of assay buffer containing one protease inhibitor cocktail tablet per 50 mL; b) 30 μL of 1 nM ^33P 2MeS-ADP made in assay buffer containing 0.02% BSA and 12.5 mg/mL ascorbic acid; 30 μL of cold 1.5 μM 2MeS-ADP for the positive control wells, or assay buffer containing 0.02% BSA and 12.5 mg/mL ascorbic acid for the negative control wells, or 5× drug dilution; and 60 μL of 1 ug/well membranes.
The plates were incubated at room temperature for 1 hour. The reaction was stopped using a cell harvester to transfer the reaction mixture onto GF/B UniFilter plates (Perkin Elmer # 6005177), and washed three times with wash buffer (50 mM Tris), filtering between each wash. The filter plates were dried for approximately 20 minutes in an oven at 50° C. Back seals were adhered to the filter plates and 25 uL of Microscint 20 scintillation fluid (Perkin Elmer # 6013621) were added. The filter plates were sealed, shaken for 30 minutes, and counted on a Top Count. Data were analyzed using a four-parameter curve fit with a fixed minimum and maximum experimentally defined as the average positive and negative controls on each plate, and with a hill slope equal to one.

[2] = molecular target: T1, P2Y12 receptor; assay: Inhibition of [33P]2MeS-ADP binding to washed human platelet membranes (Assay 1); set-up: the P2Y12 receptor, which is found on the surface of platelets; tissue Interstate Blood bank, Memphis, Tenn; host or cells: human platelets from platelet rich plasma; details: for inhibition at 10 µM: highest concentration tested 10 μM
Protocol: 1. Inhibition of [^33P]2MeS-ADP Binding to Washed Human Platelet Membranes. The ability of a test compound to bind to the P2Y12 receptor was evaluated in a platelet membrane binding assay. In this competitive binding assay, the test compound competed against a radiolabelled agonist for binding to the P2Y12 receptor, which is found on the surface of platelets. Inhibition of binding of the labeled material was measured and correlated to the amount and potency of the test compound. Data from this assay are presented in Table F. Platelet rich plasma (“PRP”) was obtained from the Interstate Blood bank, Memphis, Tenn. Platelet rich plasma was prepared from blood units collected in ACD ((prepared by (1) combining: 2.5 g sodium citrate (Sigma S-4641); 1.5 g citric acid (Sigma C-0706); and, 2.0 g dextrose (Sigma G-7528); (2) bringing pH to 4.5; and (3) adding water to bring volume to 100 mL) and using the light spin protocol; this protocol involves centrifugation at room temperature for approximately 20 minutes at speeds up to 160×g. Platelet rich plasma is supplied in units of approximately 200 ml. Each unit is distributed into four 50 mL polypropylene conical tubes for centrifugation, Blood from each donor is maintained separately.
The 50 mL tubes were centrifuged for 15 minutes at 1100 rpm in Sorvall RT6000D (with H1000B rotor). Internal centrifuge temperature was maintained at approximately room temperature (22-24° C.). This spin pelleted cellular components remaining from the PRP preparation. The supernatant was decanted into fresh 50 mL tubes. To avoid carry over of cellular components following the room temperature centrifugation, approximately 5 mL of PRP was left in the tube and discarded. The tubes were capped and inverted 2-3 times and allowed to stand at room temperature for at least 15 minutes following inversion.
Optionally, a Coulter Counter may be used to count platelets from the resting samples during the resting phase. Normal human platelet counts are expected to range from 200,000 to 400,000 per μL of PRP supernatant.
The 50 mL tubes containing PRP supernatant were centrifuged for 15 minutes at 2300-2400 rpm to loosely pellet the platelets. The supernatant from this spin was decanted immediately into a clean cell culture bottle (Corning bottle) and saved in case further centrifugation was needed. The pellet of each tube was resuspended in 2-4 mL of Wash buffer (pH 6.5) (1 L prepared new daily—134 mM NaCl (Sigma S-5150); 3 mM KCl (Sigma P-9333); 1 mM CaCl2 (JT Baker 1311-01); 2 mM MgCl2 (Sigma M-2670); 5 mM glucose (EM 4074-2); 0.3 mM NaH2PO4 (Sigma S-9638)/12 mM NaHCO3 (J T Baker 3506-01); 5 mM HEPES pH 7.4 (Gibco 12379-012); 0.35% BSA (Sigma A-7906); 330 mg Heparin (bovine lung, Sigma H-4898); and 30 mL of ACD) by repeated gentle aspiration using disposable polypropylene sample pipettes.
Wash buffer (pH 6.5) was added to each tube to bring the volume to approximately 40 mL. Each tube was incubated for at least 15 minutes at 37° C.
The tubes were then centrifuged again for 15 minutes at 2300-2400 rpm to loosely pellet the platelets. The supernatant was decanted and discarded. The pellet was resuspended in 2-4 mL of Assay buffer (pH 7.4) (1 L volume—134 mM NaCl; 3 mM KCl; 1 mM CaCl2; 2 mM MgCl2; 5 mM glucose; 0.3 mM NaH2PO4/12 mM NaHCO3; 5 mM HEPES pH 7.4; and 0.35% BSA) by repeated aspiration using disposable polypropylene sample pipettes.
The pooled platelet preparation was counted using a Coulter Counter. The final concentration of platelets was brought to 1×10^6 per μL using Assay buffer pH 7.4. The platelets were rested for a minimum of 45 minutes at 37° C. before use in the assay.
In one embodiment, the compounds were tested in 96-well microtiter filterplates (Millipore Multiscreen-FB opaque plates, #MAFBNOB50). These plates were used in the assay and pre-wet with 50 μL of Assay buffer pH 7.4 then filtered through completely with a Millipore plate vacuum. […]

[3] = washed human platelet membranes

SMILES | IC50 [1] | Ki [1] | inhibition at 10 µM [1] | inhibition at 10 µM [2] | IC50 [2, 3] | Ki [2, 3] | [33P]-2MeS-ADP Binding to Recombinant Human P2Y12 Membranes (Assay 3) % Inhibition [1]
CCc1cc2c(N3CCN(C(=O)c4ccc(-c5ccccc5)cc4)CC3)nc(NCCC(=O)O)nc2s1 [Example 24, N-{4-[4-(1,1′-Biphenyl-4-ylcarbonyl)piperazin-1-yl]-6-ethylthieno[2,3-d]pyrimidin-2-yl}-beta-alanine] | 0.0132 µM | 0.008 µM | 85% |  |  |  | 
CCc1cc2c(N3CCN(C(=O)Cc4ccccc4)CC3)nc(NC3CCCCC3)nc2s1 [Example 10, N-Cyclohexyl-6-ethyl-4-[4-(phenylacetyl)piperazin-1-yl]thieno[2,3-d]pyrimidin-2-amine] |  |  |  | 37.3% | > 10 µM |  | 
CCc1cc2c(N3CCN(C(=O)c4cccc(-c5ccccc5)c4)CC3)nc(NC(CO)CO)nc2s1 [Example 32, 2-({4-[4-(1,1′-biphenyl-3-ylcarbonyl)piperazin-1-yl]-6-ethylthieno[2,3-d]pyrimidin-2-yl}amino)propane-1,3-diol] | 0.096 µM | 0.051 µM | 96.5% |  |  |  | 
CCc1cc2c(N3CCN(C(=O)Cc4ccccc4)CC3)nc(NCc3ccco3)nc2s1 [Example 8, 6-Ethyl-N-(2-furylmethyl)-4-[4-(phenylacetyl)piperazin-1-yl]thieno[2,3-d]pyrimidin-2-amine] |  |  |  | 42.2% | 9.85 µM | 9.32 µM | 
CCc1cc2c(N3CCN(C(=O)c4ccc(-c5ccccc5)cc4)CC3)nc(NCCC(=O)NC(CO)CO)nc2s1 [Example 25, N^3-{4-[4-(1,1′-Biphenyl-4-ylcarbonyl)piperazin-1-yl]-6-ethylthieno[2,3-d]pyrimidin-2-yl}-N˜1˜-[2-hydroxy-1-(hydroxymethyl)ethyl]-beta-alaninamide] | 0.03 µM | 0.017 µM | 94% |  |  |  | 
CCOC(CCNc1nc(N2CCN(C(=O)c3ccc(-c4ccccc4)cc3)CC2)c2cc(CC)sc2n1)OCC [Example 22, 4-[4-(1,1′-Biphenyl-4-ylcarbonyl)piperazin-1-yl]-N-(3,3-diethoxypropyl)-6-ethylthieno[2,3-d]pyrimidin-2-amine] | 0.138 µM | 0.081 µM | 86% |  |  |  | 
CCc1cc2c(N3CCN(C(=O)CC(F)(F)F)CC3)nc(NC[C@@H](O)CO)nc2s1 [Example 36, (2R)-3-({6-Ethyl-4-[4-(3,3,3-trifluoropropanoyl)piperazin-1-yl]thieno[2,3-d]pyrimidin-2-yl}amino)propane-1,2-diol] | 1.05 µM and 1.94 µM | 0.557 µM and 1.01 µM | 75.7% |  |  |  | 70.7%
CCc1cc2c(N3CCN(C(=O)Cc4ccccc4)CC3)nc(NCCCc3ccccc3)nc2s1 [Example 7, 6-Ethyl-4-[4-(phenylacetyl)piperazin-1-yl]-N-(3-phenylpropyl)thieno[2,3-d]pyrimidin-2-amine] |  |  |  | 37.4% | > 10 µM |  | 
CCc1cc2c(N3CCN(C(=O)Cc4ccccc4)CC3)nc(NCc3ccccc3)nc2s1 [Example 15, N-benzyl-6-ethyl-4-[4-(phenylacetyl)piperazin-1-yl]thieno[2,3-d]pyrimidin-2-amine] |  |  |  | 44% | > 10 µM |  | 
CCc1cc2c(N3CCN(C(=O)Cc4ccccc4)CC3)nc(NCc3cccc(F)c3)nc2s1 [Example 14, 6-Ethyl-N-(3-fluorobenzyl)-4-[4-(phenylacetyl)piperazin-1-yl]thieno[2,3-d]pyrimidin-2-amine] |  |  |  | 39.9% | > 10 µM |  | 
CCc1cc2c(N3CCN(C(=O)c4ccc(-c5ccccc5)cc4)CC3)nc(NCCN(C)C)nc2s1 [Example 28, N′-{4-[4-(1,1′-biphenyl-4-ylcarbonyl)piperazin-1-yl]-6-ethylthieno[2,3-d]pyrimidin-2-yl}-N,N-dimethylethane-1,2-diamine] | 0.044 µM and 0.047 µM | 0.027 µM and 0.029 µM | 92.3% |  |  |  | 98.44%
CCc1cc2c(N3CCN(C(=O)Cc4ccccc4)CC3)nc(NCc3ccc(F)cc3)nc2s1 [Example 13, 6-Ethyl-N-(4-fluorobenzyl)-4-[4-(phenylacetyl)piperazin-1-yl]thieno[2,3-d]pyrimidin-2-amine] |  |  |  | 45.6% | > 10 µM |  | 
